These results are taken from ChEMBL document CHEMBL1151930, “Physicochemical determinants of human renal clearance” (J Med Chem, 2009).

The species named for data set [1] is Homo sapiens. The settings on record: in vivo.
The nature of data set [2]: (§1) Total body clearance in human. The settings on record: in vivo.
The next data set is described as follows: clinical. The settings on record: human, in vivo.
For data set [3], the species on record is Homo sapiens. The description is as §1. The settings on record: in vivo.

In the data set filed under Homo sapiens [1], `CCc1cccc2cc(C(O)CNC(C)(C)C)oc12` (stereo not given) [BUFURALOL] yielded a CL_renal of 0 mL/min/kg.

The clearance is the volume of plasma or blood freed of the substance per unit of time. In data set [2], `O=C1Nc2ccc(Cl)cc2C(c2ccccc2Cl)=NC1O` (stereo not given) [LORAZEPAM] gave a clearance of 1 mL/min/kg. This compound also registered a CL renal in the data set “clinical” of 0.01 mL/min/kg.

Consider `N[C@@H](Cc1ccc(N(CCCl)CCCl)cc1)C(=O)O`, for which the clearance in data set [2] is 7 mL/min/kg. The same compound returned a CL renal in “clinical” of 0.91 mL/min/kg.

Turning to `CO[C@H]1/C=C/O[C@@]2(C)Oc3c(C)c(O)c4c(O)c(c(/C=N/N5CCN(C)CC5)c(O)c4c3C2=O)NC(=O)/C(C)=C\C=C\[C@H](C)[C@H](O)[C@@H](C)[C@@H](O)[C@@H](C)[C@H](OC(C)=O)[C@@H]1C` [RIFAMPIN], the clearance in data set [2] was 1.5 mL/min/kg. The CL renal in “clinical” turned out to be 0.2 mL/min/kg.

In data set [2], `N=C(N)NC(=O)Cc1c(Cl)cccc1Cl` [GUANFACINE] had a clearance of 5.9 mL/min/kg. The compound further registered a CL renal in the data set “clinical” of 3 mL/min/kg.

`CCCCCCCN(CC)CCCC(O)c1ccc(NS(C)(=O)=O)cc1` (stereo not given) [IBUTILIDE]: in data set [2], the clearance came out at 25 mL/min/kg. Further, the CL renal in “clinical” came out at 2.5 mL/min/kg.

Compound `CN(C)CCc1c[nH]c2ccc(Cn3cncn3)cc12` [RIZATRIPTAN] showed a clearance in data set [2] of 19 mL/min/kg. In “clinical”, the CL renal came out at 5.32 mL/min/kg.

In data set [2], `CCN1CCCC1CNC(=O)c1cc(S(N)(=O)=O)ccc1OC` (stereo not given) [SULPIRIDE] gave a clearance of 1.83 mL/min/kg. In addition, in “clinical”, the CL renal was 1.7 mL/min/kg.

In data set [2], `CC1(C)S[C@@H]2[C@H](NC(=O)[C@H](NC(=O)N3CCN(S(C)(=O)=O)C3=O)c3ccccc3)C(=O)N2[C@H]1C(=O)O` [MEZLOCILLIN] returned a clearance of 5.23 mL/min/kg. Further, the CL renal in “clinical” was 2.4 mL/min/kg.

In the case of `CN1CCN2c3ncccc3Cc3ccccc3C2C1` (stereo not given) [MIRTAZAPINE], in data set [2], the clearance was 8 mL/min/kg. The compound also displayed a CL renal in the data set “clinical” of 0.32 mL/min/kg.

Turning to `CNCCC=C1c2ccccc2CCc2ccccc21` [NORTRIPTYLINE], the clearance in data set [2] stood at 10 mL/min/kg. The same compound had a CL renal in “clinical” of 0.2 mL/min/kg.

`CC(C)NCC(O)c1ccc(NS(C)(=O)=O)cc1` (stereo not given) [SOTALOL] displayed a clearance in data set [2] of 2 mL/min/kg. The same compound returned a CL renal in “clinical” of 1.7 mL/min/kg.

As to `CN1CCCC(n2nc(Cc3ccc(Cl)cc3)c3ccccc3c2=O)CC1` (stereo not given) [AZELASTINE], in data set [2], the clearance was determined as 9 mL/min/kg. Besides, the CL renal in the data set “clinical” was determined as 0.18 mL/min/kg.

Compound `CC1=NS(=O)(=O)c2cc(Cl)ccc2N1` [DIAZOXIDE] gave a clearance in data set [2] of 0.06 mL/min/kg. Moreover, the CL renal in the data set “clinical” is 0.06 mL/min/kg.

In the case of `Cc1onc(-c2c(Cl)cccc2Cl)c1C(=O)N[C@@H]1C(=O)N2[C@@H]1SC(C)(C)[C@@H]2C(=O)O` [DICLOXACILLIN], in data set [2], the clearance worked out at 2 mL/min/kg. Besides, in the data set “clinical”, the CL renal was determined as 1.2 mL/min/kg.

With `COc1cccc2c1C(=O)c1c(O)c3c(c(O)c1C2=O)C[C@@](O)(C(=O)CO)C[C@@H]3O[C@H]1C[C@H](N)[C@@H](O)[C@H](C)O1` [EPIRUBICIN], the clearance in data set [2] worked out at 20 mL/min/kg. In “clinical”, this compound had a CL renal of 2.44 mL/min/kg.

As to `CC1(C)S[C@@H]2[C@H](NC(=O)[C@H](C(=O)O)c3ccsc3)C(=O)N2[C@H]1C(=O)O` [TICARCILLIN], the clearance in data set [2] is 2.2 mL/min/kg. Moreover, in “clinical”, the CL renal came to 1.9 mL/min/kg.

In data set [2], `CC[C@@H](CO)NCCN[C@@H](CC)CO` [ETHAMBUTOL] returned a clearance of 10 mL/min/kg. In “clinical”, this compound displayed a CL renal of 7.3 mL/min/kg.

Compound `CCC1=C[C@@H]2CN(C1)Cc1c([nH]c3ccccc13)[C@@](C(=O)OC)(c1cc3c(cc1OC)N(C)[C@H]1[C@@](O)(C(=O)OC)[C@H](OC(C)=O)[C@]4(CC)C=CCN5CC[C@]31[C@@H]54)C2` [VINORELBINE] displayed a clearance in data set [2] of 20 mL/min/kg. Moreover, the CL renal in the data set “clinical” was determined as 2.2 mL/min/kg.

In data set [2], `CCS(=O)(=O)CCn1c([N+](=O)[O-])cnc1C` [TINIDAZOLE] registered a clearance of 0.6 mL/min/kg. In “clinical”, this compound registered a CL renal of 0.11 mL/min/kg.

Take `Nc1nc(=O)[nH]cc1F` [FLUCYTOSINE]: in data set [2], the clearance came out at 2 mL/min/kg. In “clinical”, the CL renal was 1.98 mL/min/kg.

In data set [2], `N[C@@H](CC(=O)N1CCn2c(nnc2C(F)(F)F)C1)Cc1cc(F)c(F)cc1F` [SITAGLIPTIN] returned a clearance of 6 mL/min/kg. In “clinical”, this compound had a CL renal of 4.74 mL/min/kg.

In the case of `C=CC[C@@H]1/C=C(\C)C[C@H](C)C[C@H](OC)[C@H]2O[C@@](O)(C(=O)C(=O)N3CCCC[C@H]3C(=O)O[C@H](/C(C)=C/[C@@H]3CC[C@@H](O)[C@H](OC)C3)[C@H](C)[C@@H](O)CC1=O)[C@H](C)C[C@@H]2OC` [TACROLIMUS ANHYDROUS], in data set [2], the clearance was found to be 0.7 mL/min/kg. In “clinical”, this compound showed a CL renal of 0.01 mL/min/kg.

In the case of `CCN1CCN(C(=O)N[C@@H](C(=O)N[C@@H]2C(=O)N3[C@@H]2SC(C)(C)[C@@H]3C(=O)O)c2ccccc2)C(=O)C1=O` [PIPERACILLIN], in data set [2], the clearance turned out to be 4 mL/min/kg. Further, the CL renal in the data set “clinical” stood at 3.2 mL/min/kg.

For the compound `CC[C@@]1(O)C(=O)OCc2c1cc1n(c2=O)Cc2c-1nc1ccccc1c2N`, the clearance in data set [2] is 6.5 mL/min/kg. The CL renal in “clinical” was 0.56 mL/min/kg.

In the data set listed under Homo sapiens [3], `CCCCS(=O)(=O)N[C@@H](Cc1ccc(OCCCCC2CCNCC2)cc1)C(=O)O` [TIROFIBAN] yielded a CL of 4.3 mL/min/kg. The same compound showed a CL renal in the data set “clinical” of 1.59 mL/min/kg.

Regarding `CN1C(C(=O)Nc2ccccn2)=C(O)c2sccc2S1(=O)=O` [TENOXICAM], in data set [2], the clearance was determined as 0.03 mL/min/kg. In the data set listed under Homo sapiens [1], this compound displayed a CL_renal of 0 mL/min/kg.

In the data set filed under Homo sapiens [1], `Cc1ncc2n1-c1ccc(Cl)cc1C(c1ccccc1F)=NC2` [MIDAZOLAM] returned a CL_renal of 0 mL/min/kg.

In the case of `CCN(CC)CCNC(=O)c1ccc(NC(C)=O)cc1` [ACECAINIDE], the clearance in data set [2] was 4 mL/min/kg. Further, in “clinical”, the CL renal stood at 3.2 mL/min/kg.

`CC(=O)Nc1ccc(OCC(O)CNC(C)C)cc1` (stereo not given) [PRACTOLOL] yielded a clearance in data set [2] of 2 mL/min/kg. Besides, the CL renal in the data set “clinical” was 1.7 mL/min/kg.

In the data set filed under Homo sapiens [1], `COCc1c(C(C)C)nc(C(C)C)c(/C=C/[C@@H](O)C[C@@H](O)CC(=O)O)c1-c1ccc(F)cc1` [CERIVASTATIN] had a CL_renal of 0 mL/min/kg.

The compound `COc1ccc([C@]2(C#N)CC[C@@H](C(=O)O)CC2)cc1OC1CCCC1` [CILOMILAST] displayed a clearance in data set [2] of 0.5 mL/min/kg. For the same compound, in “clinical”, the CL renal is 0.01 mL/min/kg.

Turning to `CCN1CCCC1CNC(=O)c1cc(S(=O)(=O)CC)c(N)cc1OC` (stereo not given) [AMISULPRIDE], the clearance in data set [2] came out at 7.8 mL/min/kg. This compound yielded a CL renal in “clinical” of 4.4 mL/min/kg.

In data set [2], `CCCCC/C=C\CCC(=O)N[C@H]1[C@H](Oc2c3cc4cc2Oc2ccc(cc2Cl)[C@@H](O[C@@H]2O[C@H](CO)[C@@H](O)[C@H](O)[C@H]2NC(C)=O)[C@@H]2NC(=O)[C@H](NC(=O)[C@@H]4NC(=O)[C@H]4NC(=O)[C@@H](Cc5ccc(c(Cl)c5)O3)NC(=O)[C@H](N)c3ccc(O)c(c3)Oc3cc(O)cc4c3)c3ccc(O)c(c3)-c3c(O[C@H]4O[C@H](CO)[C@@H](O)[C@H](O)[C@@H]4O)cc(O)cc3[C@@H](C(=O)O)NC2=O)O[C@H](CO)[C@@H](O)[C@@H]1O` [TEICOPLANIN A2-1] returned a clearance of 0.17 mL/min/kg. Further, the CL renal in “clinical” stood at 0.17 mL/min/kg.

For the compound `CN(C)[C@@H]1C(O)=C(C(N)=O)C(=O)[C@@]2(O)C(O)=C3C(=O)c4c(O)cccc4[C@@](C)(O)[C@H]3[C@H](O)[C@@H]12` [OXYTETRACYCLINE], the clearance in data set [2] came out at 2 mL/min/kg. The same compound yielded a CL renal in the data set “clinical” of 1.4 mL/min/kg.

`O=C(NCCN1CCOCC1)c1ccc(Cl)cc1` [MOCLOBEMIDE] returned a clearance in data set [2] of 10 mL/min/kg. Also, the CL renal in the data set “clinical” was 0.05 mL/min/kg.

In data set [2], `CCCC1O[C@@H]2C[C@H]3[C@@H]4CCC5=CC(=O)C=C[C@]5(C)[C@H]4[C@@H](O)C[C@]3(C)[C@]2(C(=O)CO)O1` (stereo not given in full) [BUDESONIDE] showed a clearance of 20 mL/min/kg. The compound further displayed a CL renal in the data set “clinical” of 1 mL/min/kg.

As for `CCCn1c(=O)[nH]c(=O)c2[nH]cnc21` [ENPROFYLLINE], the clearance in data set [2] is 4 mL/min/kg. In addition, in “clinical”, the CL renal is 3.56 mL/min/kg.

The compound `O=[N+]([O-])O[C@@H]1CO[C@H]2[C@@H]1OC[C@@H]2O` [ISOSORBIDE MONONITRATE] yielded a clearance in data set [2] of 2 mL/min/kg. This compound also showed a CL renal in “clinical” of 0.1 mL/min/kg.

For `CN[C@@H]1[C@@H](O)[C@@H](O[C@@H]2[C@@H](O)[C@H](O[C@H]3OC(CN)=CC[C@H]3N)[C@@H](N)C[C@H]2N)OC[C@]1(C)O` [SISOMICIN], the clearance in data set [2] is 1 mL/min/kg. In “clinical”, this compound showed a CL renal of 0.76 mL/min/kg.

In the case of `Nc1nc2c(c(=O)[nH]1)N(C=O)C(CNc1ccc(C(=O)N[C@@H](CCC(=O)O)C(=O)O)cc1)CN2` (stereo not given in full) [LEUCOVORIN], the clearance in data set [2] was 5.3 mL/min/kg. The CL renal in the data set “clinical” was found to be 0.8 mL/min/kg.

Regarding `CC[C@H]1OC(=O)[C@H](C)[C@@H](O[C@H]2C[C@@](C)(OC)[C@@H](O)[C@H](C)O2)[C@H](C)[C@@H](O[C@@H]2O[C@H](C)C[C@H](N(C)C)[C@H]2O)[C@](C)(O)C[C@@H](C)CN(C)[C@H](C)[C@@H](O)[C@]1(C)O` [AZITHROMYCIN], in data set [2], the clearance turned out to be 10 mL/min/kg. Besides, the CL renal in the data set “clinical” amounted to 0.45 mL/min/kg.

`C[C@@H]1O[C@@H]1P(=O)(O)O` [FOSFOMYCIN]: the clearance in data set [2] was determined as 2 mL/min/kg. This compound also had a CL renal in the data set “clinical” of 2 mL/min/kg.

`O=C(NCCNCC(O)COc1ccc(O)cc1)N1CCOCC1` (stereo not given) [XAMOTEROL] came in with a clearance in data set [2] of 3 mL/min/kg. This compound returned a CL renal in “clinical” of 1.86 mL/min/kg.
